Experimental data from patent publication US20250295732A1, “COMPOSITIONS AND METHODS FOR ACTIVATING INNATE IMMUNITY” (Zoetis Services LLC, priority 2021, published 2025).

Legend:
[1] = system: bovine monocyte-derived macrophages; assay: H3 histone modification quantification (ELISA); type: cell-based; settings: vs vehicle
Source text: (§1) Peripheral blood mononuclear cells (PBMC) were isolated from bovine blood using ficoll gradients. Bovine monocytes were isolated from PBMC using magnetic assisted cell sorting to positively select for CD14+ cells using anti-human CD14 microbeads (Miltenyi Biotec). Purified bovine blood CD14+ monocytes were differentiated into macrophages using an M2-skewing differentiation factor (recombinant bovine M-CSF) over 7 days then exposed to CATH2 or a vehicle control in the presence of bovine casein to mimic aspects of the mammary gland for 24 hr. […] Following the rest period, a subset of vehicle- and CATH2-trained monocyte-derived macrophages were assessed for epigenetic and transcriptomic changes. The remaining cells were challenged with LPS or E. coli bioparticle labeled with pH-sensitive pHrodo green dye and key parameters for macrophage activation/immune response were assessed including glycolytic activity, surface marker expression, gene expression, cytokine production, phagocytosis, reactive nitrogen species production, and miRNA profiling.
Histones were isolated from bovine monocyte-derived macrophages using commercially available histone extraction kits (Epigentek) according to the manufacturer's instructions and stored at −80° C. until histone quantification assays could be performed. […]

[2] = system: bovine monocyte-derived macrophages; assay: LPS-induced cytokine response of CATH2-trained monocyte-derived macrophages (U-Plex MSD); type: cell-based; settings: CATH2 24 hr, removal, 3-day rest, LPS 1 μg/mL 24 hours; vs vehicle
Source text: as §1
Cytokine levels in cell culture supernatant (IL-8/CXCL8, IL-6, TNFα, IL-1β, IL-10, IL-12p40) were quantified using customized U-Plex assays (MesoScale Diagnostics, LLC). […] Raw data were analyzed using MSD DISCOVERY BENCHWORK.

[3] = system: milk macrophages (CD14+CD172a+ milk cells); assay: In vivo intramammary treatment and E. coli mastitis challenge model; parameters: species or system lactating dairy cows
Procedure: Healthy lactating dairy cows were treated according to table 1 on day −2 of study, at the AM milking, in the front quarters designated by the allotment, one quarter was treated with CATH2 and the neighboring quarter within the same cow was given vehicle control by intramammary infusion. Following administration of CATH2 and vehicle doses, quarters which received CATH2 or vehicle received an intramammary infusion of live Escherichia coli. The E. coli strain used causes clinical mastitis. Milk samples from CATH2-treated and vehicle control quarters were collected following E. coli challenge for cell isolation to assess macrophage surface marker expression.
Expression of surface markers on bovine monocyte-derived macrophages and cells isolated from bovine milk were assessed using flow cytometry. In brief, for monocyte-derived macrophages, cells were lifted with Accutase, washed, and then incubated with fluorescently tagged antibodies against bovine surface markers of interest (CD163, CD14, CD80, MHC II) and a live/dead stain. In brief, for cells in bovine milk, milk was diluted in MACS Running Buffer, spun, fat layer and supernatant were discarded, and milk cell pellets were preserved in Streck. Preserved milk cells were washed again and then incubated with fluorescently tagged antibodies against bovine surface markers of interest (CD163, CD14, CD80, MHC II, CD172a) and a live/dead stain. Following incubation with live/dead stain and antibodies, labeled cells were washed, and then analyzed on a ZE5 CellAnalyzer (BioRad) for monocyte-derived macrophages and a FACS Canto II (BD) for milk cells. Flow cytometry data were analyzed using FlowJo analysis software (Becton Dickson) to assess relative levels of expression via mean fluorescent intensity for each marker of interest within the live CD14+ cell population (for monocyte-derived macrophages) or within the live CD14+CD172a+ cell population (for milk cells).

[4] = system: bovine monocyte-derived macrophages; assay: LPS-induced lactate production (LactateGlo); type: cell-based; settings: CATH2 24 hr, removal, 3-day rest, LPS 24 hours; vs vehicle
Source text: (§2) Peripheral blood mononuclear cells (PBMC) were isolated from bovine blood using ficoll gradients. Bovine monocytes were isolated from PBMC using magnetic assisted cell sorting to positively select for CD14+ cells using anti-human CD14 microbeads (Miltenyi Biotec). Purified bovine blood CD14+ monocytes were differentiated into macrophages using an M2-skewing differentiation factor (recombinant bovine M-CSF) over 7 days then exposed to CATH2 or a vehicle control in the presence of bovine casein to mimic aspects of the mammary gland for 24 hr. Following treatment, vehicle and drug were removed and cells were washed to eliminate residual drug and monocyte-derived macrophages were rested for 3 days in order to assess reprogramming. Following the rest period, a subset of vehicle- and CATH2-trained monocyte-derived macrophages were assessed for epigenetic and transcriptomic changes. The remaining cells were challenged with LPS or E. coli bioparticle labeled with pH-sensitive pHrodo green dye and key parameters for macrophage activation/immune response were assessed including glycolytic activity, surface marker expression, gene expression, cytokine production, phagocytosis, reactive nitrogen species production, and miRNA profiling.
Lactate levels in cell culture supernatant were quantified using LactateGlo® (Promega) according to manufacturer's instructions.

[5] = system: bovine monocyte-derived macrophages; assay: ChIP-Seq for H3K27ac; type: cell-based; settings: after CATH2 exposure and 3-day rest, pre-LPS; vs vehicle
Source text: as §2, with “profiling. […]” for “profiling.”

[6] = intramammary CATH2 prior to E. coli challenge

With “RFGRFLRKIRRFRPKVTITIQGSARFG [CATH2, cathelicidin 2 peptide]” as the sequence, how does the “H3 histone modifications (incl. H3K27ac, H3K4me1)” value ([1]; after CATH2 exposure and rest period, pre-LPS) read?
Its value is “increased levels of various H3 histone modifications”.

What about the “H3 histone modifications following LPS challenge” value ([1]; after CATH2 exposure, rest, LPS 1 μg/mL 24 hr) of the same sequence?
Its value is “some modifications are retained to a lesser extent”.

And the “LPS-induced cytokine production (IL-12p40, IL-6, TNFα, IL-8, IL-1β, IL-10)” value [2]?
The value was “enhanced production of both pro- and anti-inflammatory cytokines/chemokines”.

And the “Bacterial counts in milk” value [3, 6]?
The value was “reduced bacterial counts in milk”.

What about the “Milk somatic cell counts” value [3, 6] of the same sequence?
The value was “lower milk somatic cell counts”.

And the “Milk macrophage surface marker expression (CD14, CD80, MHC II, CD163)” value ([3]; intramammary CATH2 prior to challenge, 12 hr following live E. coli intramammary challenge, vs vehicle quarter)?
The value was “enhanced expression of the same surface markers”.

And the “LPS-induced lactate production in supernatant” value [4]?
The value was “increased lactate production”.

And the “ChIP-Seq peaks with H3K27ac mark” value [5]?
The value was “increased number of peaks with H3K27ac mark”.
